Like-named read-outs stand apart in the source and are kept apart here.
Legend:
[1] = test system: G93A SOD1 B6SJL hybrid (G93A) model; experiment: Body weight and body composition (lean mass, fat mass; NMR scans) in G93A SOD1 transgenic mice; type: in vivo; conditions: for Average Δ body weight / Average Δ fat mass / Average Δ lean mass: per day alive after disease onset
Excerpt: (§1) Transgenic mice over-expressing a high copy number (25 copies) of mutated human SOD1 gene with a G93A point mutation, i.e., B6SJL-TgN [SOD1-G93A]1 Gur (G1H-G93A transgenic mice, JR2726; Hemizygote) (Gurney M E, et al., Science, 264, 1772-1775, 1994) (“G93A SOD1 B6SJL hybrid (G93A) model”), were used.
[…] […] There were 16 mice in the S-oxprenolol group.
The primary endpoint was survival, humanely defined as the ability of the animal to right itself in 30 seconds after being laid on its side. Secondary endpoints were body weight, body composition, spontaneous activity and food intake. Body weight of the animals was assessed weekly until onset of disease. Additionally, body composition (fat mass and lean body mass) was assessed using NMR scans (EchoMRI-100, Echo Medical Systems, Houston, USA) every 4 days. After onset of disease, body weight and body composition were assessed every two days until the end of the study. All personal handling the animals was strictly blinded to the randomized treatment allocation.
To study the effect of S-oxprenolol on body weight, body weight was monitored over time.
To study the effect of the test compounds on lean body mass, lean mass was determined at the end of the study.
To study the effect of the test compounds on fat mass, the fat mass were determined at the end of the study.
To study the effect of S-oxprenolol on body weight, body weight was monitored over time. […] The number of all mice in the population is indicated as “n” in at the bottom of FIGS. 20A-20C.
To study the effect of the test compounds on lean body mass, lean mass was determined at the end of the study. […] The number of all mice in the population is indicated as “n” in at the bottom of FIGS. 20D-20F.
To study the effect of the test compounds on fat mass, the fat mass were determined at the end of the study. […] The number of all mice in the population is indicated as “n” in at the bottom of FIGS. 20G-20I.

[2] = test system: G93A SOD1 B6SJL hybrid (G93A) model; conditions: for Heart / gastrocnemius: end of study;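 as to HR survival (FIG. 14): dosing began after ALS onset in G93A SOD1 mice, with survival as the endpoint, defined humanely as the animal failing to regain upright posture within 30 s when placed sideways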;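 as to HR survival (FIG. 16): dosing began after ALS onset in G93A SOD1 mice, with survival as the endpoint, defined humanely as the animal failing to regain upright posture within 30 s when placed sideways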
Experimental: as §1
To study the effect of the test compounds on skeletal muscle atrophy, the skeletal muscle mass were determined at the end of the study.
The number of all mice in the population is indicated as “n” in at the bottom of FIGS. 21A-21C.
The number of all mice in the population is indicated as “n” in at the bottom of FIGS. 20D-20F.
The number of all mice in the population is indicated as “n” in at the bottom of FIGS. 21G-21I.

[3] = test system: G93A SOD1 B6SJL hybrid (G93A) model; conditions: for HR survival (FIG. 14): all mice; for HR survival (FIG. 16): female mice; for HR survival (FIG. 15): male mice;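 as to HR survival (FIG. 14): dosing began after ALS onset in G93A SOD1 mice, with survival as the endpoint, defined humanely as the animal failing to regain upright posture within 30 s when placed sideways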;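 as to HR survival (FIG. 16): dosing began after ALS onset in G93A SOD1 mice, with survival as the endpoint, defined humanely as the animal failing to regain upright posture within 30 s when placed sideways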
Excerpt: To study the effect of S-oxprenolol on survival, survival was monitored over time.

[4] = test system: G93A SOD1 B6SJL hybrid (G93A) model; experiment: Disease progression score (JAX SOP) in G93A SOD1 transgenic mice
Excerpt: The disease progression score is based on the JAX SOP (Ludolph A C, Bendotti C, Blaugrund E, Hengerer B, Loffler J P, Martin J, Meininger V, Meyer T, Moussaoui S, Robberecht W, Scott S, Silani V, Van Den Berg L H (ENMC Group For The Establishment Of Guidelines For The Conduct Of Preclinical And Proof Of Concept Studies In ALS/MND Models). 2007, which is incorporated by reference).

[5] = 20 mg/kg/day vs. S-Oxprenolol (20)

Compound `C=CCOc1ccccc1OC[C@H](O)CNC(C)C` [R-oxprenolol, (R)-1-(2-(allyloxy)phenoxy)-3-(isopropylamino)propan-2-ol] has a Δ body weight ([1]; all mice, 10 mg/kg/d) of -6.36 ± 0.39 g, a Δ fat mass ([1]; all mice, 10 mg/kg/d) of -1.71 ± 0.15 g and a Δ lean mass ([1]; all mice, 10 mg/kg/d) of -5.11 ± 0.32 g. The “Average Δ body weight” value ([1]; all mice, 10 mg/kg/d) was -146.1 ± 11.1 mg/day, the “Average Δ fat mass” value ([1]; all mice, 10 mg/kg/d) was -38.3 ± 4.2 mg/day and the “Average Δ lean mass” value ([1]; all mice, 10 mg/kg/d) was -125.8 ± -12.7 mg/day. It also gave a Δ body weight ([1]; all mice, 20 mg/kg/d) of -5.21 ± 0.39 g, a Δ fat mass ([1]; all mice, 20 mg/kg/d) of -1.59 ± 0.15 g and a Δ lean mass ([1]; all mice, 20 mg/kg/d) of -4.60 ± 0.28 g. For the same compound, the “Average Δ body weight” value ([1]; all mice, 20 mg/kg/d) was -111.0 ± 9.4 mg/day, the “Average Δ fat mass” value ([1]; all mice, 20 mg/kg/d) was -32.6 ± 3.0 mg/day and the “Average Δ lean mass” value ([1]; all mice, 20 mg/kg/d) was -96.6 ± 6.4 mg/day. For the same compound, the Δ body weight ([1]; female mice, 10 mg/kg/d) was -6.19 ± 0.42 g, the Δ fat mass ([1]; female mice, 10 mg/kg/d) was -1.87 ± 0.22 g and the Δ lean mass ([1]; female mice, 10 mg/kg/d) was -3.76 ± 0.41 g. The “Average Δ body weight” value ([1]; female mice, 10 mg/kg/d) was -137.4 ± 15.5 mg/day, the “Average Δ fat mass” value ([1]; female mice, 10 mg/kg/d) was -41.4 ± 5.3 mg/day and the “Average Δ lean mass” value ([1]; female mice, 10 mg/kg/d) was -121.3 ± 25.7 mg/day. The Δ body weight ([1]; female mice, 20 mg/kg/d) was -4.85 ± 0.55 g, the Δ fat mass ([1]; female mice, 20 mg/kg/d) was -1.71 ± 0.26 g and the Δ lean mass ([1]; female mice, 20 mg/kg/d) was -4.55 ± 0.37 g. The “Average Δ body weight” value ([1]; female mice, 20 mg/kg/d) was -105.2 ± 13.1 mg/day, the “Average Δ fat mass” value ([1]; female mice, 20 mg/kg/d) was -35.6 ± 5.0 mg/day and the “Average Δ lean mass” value ([1]; female mice, 20 mg/kg/d) was -85.2 ± 9.1 mg/day. It also gave a Δ body weight ([1]; male mice, 10 mg/kg/d) of -6.515 ± 0.65 g, a Δ fat mass ([1]; male mice, 10 mg/kg/d) of -1.57 ± 0.21 g and a Δ lean mass ([1]; male mice, 10 mg/kg/d) of -5.55 ± 0.47 g. The “Average Δ body weight” value ([1]; male mice, 10 mg/kg/d) was -153.5 ± 16.1 mg/day, the “Average Δ fat mass” value ([1]; male mice, 10 mg/kg/d) was -37.4 ± 6.4 mg/day and the “Average Δ lean mass” value ([1]; male mice, 10 mg/kg/d) was -129.7 ± 9.9 mg/day. For the same compound, the Δ body weight ([1]; male mice, 20 mg/kg/d) was -5.53 ± 0.57 g, the Δ fat mass ([1]; male mice, 20 mg/kg/d) was -1.48 ± 0.16 g and the Δ lean mass ([1]; male mice, 20 mg/kg/d) was -5.12 ± 0.38 g. The “Average Δ body weight” value ([1]; male mice, 20 mg/kg/d) was -116.0 ± 13.7 mg/day, the “Average Δ fat mass” value ([1]; male mice, 20 mg/kg/d) was -29.9 ± 3.5 mg/day and the “Average Δ lean mass” value ([1]; male mice, 20 mg/kg/d) was -106.4 ± 8.5 mg/day. The “BAT (brown adipose tissue)” value ([2]; all mice, 10 mg/kg/d) was 44.5 ± 3.4 mg, the “EDL (extensor digitorum longus)” value ([2]; all mice, 10 mg/kg/d) was 6.53 ± 0.47 mg and the soleus ([2]; all mice, 10 mg/kg/d) was 4.49 ± 0.36 mg. The Heart ([2]; all mice, 10 mg/kg/d) was 101.2 ± 2.7 mg, the gastrocnemius ([2]; all mice, 10 mg/kg/d) was 50.8 ± 3.3 mg and the “BAT (brown adipose tissue)” value ([2]; all mice, 20 mg/kg/d) was 43.3 ± 4.1 mg. For the same compound, the “EDL (extensor digitorum longus)” value ([2]; all mice, 20 mg/kg/d) was 5.89 ± 0.31 mg, the soleus ([2]; all mice, 20 mg/kg/d) was 5.49 ± 0.34 mg and the Heart ([2]; all mice, 20 mg/kg/d) was 100.7 ± 3.8 mg. For the same compound, the gastrocnemius ([2]; all mice, 20 mg/kg/d) was 47.0 ± 2.6 mg, the “BAT (brown adipose tissue)” value ([2]; female mice, 10 mg/kg/d) was 42.1 ± 4.6 mg and the “EDL (extensor digitorum longus)” value ([2]; female mice, 10 mg/kg/d) was 6.45 ± 0.75 mg. For the same compound, the soleus ([2]; female mice, 10 mg/kg/d) was 4.23 ± 0.51 mg, the Heart ([2]; female mice, 10 mg/kg/d) was 94.4 ± 3.4 mg and the gastrocnemius ([2]; female mice, 10 mg/kg/d) was 47.5 ± 4.1 mg. The “BAT (brown adipose tissue)” value ([2]; female mice, 20 mg/kg/d) was 32.6 ± 1.9 mg, the “EDL (extensor digitorum longus)” value ([2]; female mice, 20 mg/kg/d) was 5.98 ± 0.47 mg and the soleus ([2]; female mice, 20 mg/kg/d) was 5.09 ± 0.52 mg. The Heart ([2]; female mice, 20 mg/kg/d) was 88.5 ± 4.6 mg, the gastrocnemius ([2]; female mice, 20 mg/kg/d) was 43.6 ± 4.2 mg and the “BAT (brown adipose tissue)” value ([2]; male mice, 10 mg/kg/d) was 46.7 ± 4.9 mg. For the same compound, the “EDL (extensor digitorum longus)” value ([2]; male mice, 10 mg/kg/d) was 6.59 ± 0.61 mg, the soleus ([2]; male mice, 10 mg/kg/d) was 4.74 ± 0.51 mg and the Heart ([2]; male mice, 10 mg/kg/d) was 107.4 ± 3.4 mg. The gastrocnemius ([2]; male mice, 10 mg/kg/d) was 53.8 ± 5.1 mg, the “BAT (brown adipose tissue)” value ([2]; male mice, 20 mg/kg/d) was 53.9 ± 6.8 mg and the “EDL (extensor digitorum longus)” value ([2]; male mice, 20 mg/kg/d) was 5.81 ± 0.42 mg. The soleus ([2]; male mice, 20 mg/kg/d) was 5.84 ± 0.45 mg, the Heart ([2]; male mice, 20 mg/kg/d) was 112.0 ± 4.1 mg and the gastrocnemius ([2]; male mice, 20 mg/kg/d) was 49.9 ± 3.0 mg. For the same compound, the “HR survival (FIG. 14)” value ([3]; 10 mg/kg/day vs. placebo) was 0.57, the “HR survival (FIG. 14)” value [3, 5] was 1.32 and the “HR survival (FIG. 14)” value ([3]; 20 mg/kg/day vs. placebo) was 0.54. The “HR survival (FIG. 16)” value ([3]; 10 mg/kg/day vs. placebo) was 0.60, the “HR survival (FIG. 16)” value [3, 5] was 1.26 and the “HR survival (FIG. 16)” value ([3]; 20 mg/kg/day vs. placebo) was 0.41. The “HR survival (FIG. 15)” value ([3]; 10 mg/kg/day vs. placebo) was 0.49, the “HR survival (FIG. 15)” value [3, 5] was 1.24 and the “HR survival (FIG. 15)” value ([3]; 20 mg/kg/day vs. placebo) was 0.41. The “HR Progression from score 1 to score 2 (FIG. 17)” value ([4]; 10 mg/kg/day vs. placebo) was 0.47, the “HR Progression from score 1 to score 3 (FIG. 19)” value ([4]; 10 mg/kg/day vs. placebo) was 0.60 and the “HR Progression from score 2 to score 3 (FIG. 18)” value ([4]; 10 mg/kg/day vs. placebo) was 1.04. The “HR Progression from score 1 to score 2 (FIG. 17)” value ([4]; 20 mg/kg/day vs. placebo) was 0.54, the “HR Progression from score 1 to score 3 (FIG. 19)” value ([4]; 20 mg/kg/day vs. placebo) was 0.63 and the “HR Progression from score 2 to score 3 (FIG. 18)” value ([4]; 20 mg/kg/day vs. placebo) was 0.74.
